Measurements as given in US20190240225A1, “COMBINATION OF A BCL-2 INHIBITOR AND A MCL-1 INHIBITOR, USES AND PHARMACEUTICAL COMPOSITIONS THEREOF” (LES LABORATOIRES SERVIER, priority 2016, published 2019).

Experiments:
KMS12BM = assay: MTT cell viability assay, myeloma cell line; type: cell-based, human; settings: Homo sapiens, KMS-12-BM, single agent, read-out: IC50
Method: (§1) Cell lines: Human myeloma cell lines (HMCLs) were derived from primary myeloma cells cultured in RPMI 1640 medium supplemented with 5% fetal calf serum from and 3 ng/mL recombinant IL-6 for IL-6 dependent cell lines. HMCLs are representative of phenotypic and genomic heterogeneity and the variability in patient's response to therapy.
(§2) MTT assay: Cell viability is measured using MTT (3-(4,5-dimethylthiazol-2-yl)-2,5-diphenyltetrazolium bromide) colorimetric survival assay. Cells are incubated with compounds in 96-well plates containing a final volume of 100 μl/well time. (2R)-2-{[(5Sa)-5-{3-chloro-2-methyl-4-[2-(4-methylpiperazin-1-yl)ethoxy]phenyl}-6-(5-fluorofuran-2-yl)thieno[2,3-d]pyrimidin-4-yl]oxy}-3-(2-{[1-(2,2,2-trifluoroethyl)-1H-pyrazol-5-yl]methoxy}phenyl)propanoic acid (Compound 2) is used at 9 different concentrations accordingly to single agent sensitivity. N-(4-hydroxyphenyl)-3-{6-[((3S)-3-(4-morpholinylmethyl)-3,4-dihydro-2(1H)-isoquinolinyl)carbonyl]-1,3-benzodioxol-5-yl}-N-phenyl-5,6,7,8-tetrahydro-1-indolizine carboxamide hydrochloride (Compound 1, HCl) is used at a fixed dose—1 μM. At the end of each treatment, cells are incubated with 1 mg/mL MTT (50 μl MTT solution 2.5 mg/ml for each well) at 37° C. for 3 hours allowing the MTT to be metabolized. Lysis buffer (100 μl Lysis buffer: DMF (2:3)/SDS (1:3)) is added into each well to dissolve formazan cristals and after 18 h of incubation, absorbance in viable cells is measured at 570 nm using a spectrophotometer.
(§3) The sensitivity of 27 human multiple myeloma cell lines to Compound 1, Compound 2 or to Compound 2 in the presence of 1 μM of Compound 1 was analyzed by using MTT cell viability assay. 50% inhibitory concentrations (IC50, in nM) were determined.

MM1S = assay: MTT cell viability assay, myeloma cell line; type: cell-based, human; settings: Homo sapiens, MM1.S, single agent, read-out: IC50
Method: as §1, §2, §3

BCN = assay: MTT cell viability assay, myeloma cell line; type: cell-based, human; settings: Homo sapiens, single agent, read-out: IC50
Method: as §1, §2, §3

XG7 = assay: MTT cell viability assay, myeloma cell line; type: cell-based, human; settings: Homo sapiens, single agent, read-out: IC50
Method: as §1, §2, §3

KMS11 = assay: MTT cell viability assay, myeloma cell line; type: cell-based, human; settings: Homo sapiens, KMS-11, single agent, read-out: IC50
Method: as §1, §2, §3

JIM3 = assay: MTT cell viability assay, myeloma cell line; type: cell-based, human; settings: Homo sapiens, single agent, read-out: IC50
Method: as §1, §2, §3

OPM2 = assay: MTT cell viability assay, myeloma cell line; type: cell-based, human; settings: Homo sapiens, OPM-2, single agent, read-out: IC50
Method: as §1, §2, §3

ANBL6 = assay: MTT cell viability assay, myeloma cell line; type: cell-based, human; settings: Homo sapiens, ANBL-6, single agent, read-out: IC50
Method: as §1, §2, §3

RPMI8226 = assay: MTT cell viability assay, myeloma cell line; type: cell-based, human; settings: Homo sapiens, RPMI-8226, single agent, read-out: IC50
Method: as §1, §2, §3

SBN = assay: MTT cell viability assay, myeloma cell line; type: cell-based, human; settings: Homo sapiens, single agent, read-out: IC50
Method: as §1, §2, §3

NAN8 = assay: MTT cell viability assay, myeloma cell line; type: cell-based, human; settings: Homo sapiens, single agent, read-out: IC50
Method: as §1, §2, §3

JJN3 = assay: MTT cell viability assay, myeloma cell line; type: cell-based, human; settings: Homo sapiens, JJN-3, single agent, read-out: IC50
Method: as §1, §2, §3

NCI-H929 = assay: MTT cell viability assay, myeloma cell line; type: cell-based, human; settings: Homo sapiens, single agent, read-out: IC50
Method: as §1, §2, §3

XG3 = assay: MTT cell viability assay, myeloma cell line; type: cell-based, human; settings: Homo sapiens, single agent, read-out: IC50
Method: as §1, §2, §3

NAN6 = assay: MTT cell viability assay, myeloma cell line; type: cell-based, human; settings: Homo sapiens, single agent, read-out: IC50
Method: as §1, §2, §3

NAN3 = assay: MTT cell viability assay, myeloma cell line; type: cell-based, human; settings: Homo sapiens, single agent
Method: as §1, §2, §3

LP1 = assay: MTT cell viability assay, myeloma cell line; type: cell-based, human; settings: Homo sapiens, LP-1, single agent, read-out: IC50
Method: as §1, §2, §3

XG2 = assay: MTT cell viability assay, myeloma cell line; type: cell-based, human; settings: Homo sapiens, single agent, read-out: IC50
Method: as §1, §2, §3

L363 = assay: MTT cell viability assay, myeloma cell line; type: cell-based, human; settings: Homo sapiens, L-363, single agent, read-out: IC50
Method: as §1, §2, §3

KMM1 = assay: MTT cell viability assay, myeloma cell line; type: cell-based, human; settings: Homo sapiens, KMM-1, single agent, read-out: IC50
Method: as §1, §2, §3

XG6 = assay: MTT cell viability assay, myeloma cell line; type: cell-based, human; settings: Homo sapiens, single agent, read-out: IC50
Method: as §1, §2, §3

NAN9 = assay: MTT cell viability assay, myeloma cell line; type: cell-based, human; settings: Homo sapiens, single agent, read-out: IC50
Method: as §1, §2, §3

neuroblastoma cell lines = assay: CellTiterGlo viability, panel of neuroblastoma cell lines; type: cell-based; settings: all neuroblastoma cell lines tested; single agent
Method: In addition, all media contained penicillin (100 IU/ml), streptomycin (100 μg/ml) and L-glutamine (2 mM). Cell lines were cultured at 37° C. in a humidified atmosphere containing 5% CO2 and expanded in T-150 flasks. In all cases cells were thawed from frozen stocks, expanded through ≥1 passage using appropriate dilutions, counted and assessed for viability using a CASY cell counter prior to plating 150 ul/well at the densities indicated in Table 6 into 96-well plates. All cell lines were determined to be free of mycoplasma contamination in-house.
Stock solutions of compounds were prepared at a concentration of 5 mM in DMSO and stored at −20° C. […] Effects of the compounds on cell viability were assessed after 2 or 3 days of incubation (as indicated in Table 6) at 37° C./5% CO2 by quantification of cellular ATP levels using CellTiterGlo at 150 μL reagent/well. […] Luminescence was quantified on a multipurpose platereader. Single agent IC50s were calculated using standard four-parametric curve fitting. […]
Identical experiments were performed to assess potential synergistic interactions between compound combinations. Synergy Score were assessed using the Excess Inhibition 2D matrix according to the Loewe additivity model (Lehar et al, Nat Biotechnol. 2009 July; 27(7): 659-666). […]

`Cl.O=C(c1cc(-c2cc3c(cc2C(=O)N2Cc4ccccc4C[C@H]2CN2CCOCC2)OCO3)n2c1CCCC2)N(c1ccccc1)c1ccc(O)cc1` [Compound 1, HCl, N-(4-hydroxyphenyl)-3-{6-[((3S)-3-(4-morpholinylmethyl)-3,4-dihydro-2(1H)-isoquinolinyl)carbonyl]-1,3-benzodioxol-5-yl}-N-phenyl-5,6,7,8-tetrahydro-1-indolizine carboxamide hydrochloride] gave an IC50 (KMS12BM) of 1.39 µM, an IC50 (MM1S) of 21.4 µM and an IC50 (BCN) of 22.2 µM. It also gave an IC50 (XG7) of 18.1 µM, an IC50 (KMS11) of 10.5 µM and an IC50 (JIM3) greater than 30 µM. For the same molecule, the IC50 (OPM2) was 6.46 µM, the IC50 (ANBL6) was 1.91 µM and the IC50 (RPMI8226) was 3.2 µM. For the same molecule, the IC50 (SBN) was 21.3 µM, the IC50 (NAN8) was 9.1 µM and the IC50 (JJN3) was 2.69 µM. The IC50 (NCI-H929) was 15.7 µM, the IC50 (XG3) was 7.22 µM and the IC50 (NAN6) was 4.07 µM. For the same molecule, the IC50 (NAN3) was 8.24 µM, the IC50 (LP1) was 9.77 µM and the IC50 (XG2) was 15.3 µM. For the same molecule, the IC50 (L363) was 7.58 µM, the IC50 (KMM1) was 23.9 µM and the IC50 (XG6) was 8.54 µM. For the same molecule, the IC50 (NAN9) was 23.2 µM and the IC50 (neuroblastoma cell lines) was greater than 1 µM.
